According to patent US11925634B2, “Use of koumine in preparation of medicament for treatment of inflammatory bowel disease” (Fujian Medical University, priority 2019, dated 2024):

Key:
[1] = test system: myeloperoxidase (MPO); test: Immunohistochemical detection of MPO expression in colonic tissue, OXA model; type: in vivo, BALB/c mice
Protocol: (§1) […]

[2] = test system: myeloperoxidase (MPO); test: Immunohistochemical detection of MPO expression in colonic tissue, DSS model; type: in vivo, C57BL/6 mice
Protocol: (§2) 1.2. Medicaments and Reagents Koumine hydrochloride (C20H22N2O·HCl) (in the form of a powder) was prepared in the School of Pharmacy, Fujian Medical University (Batch No. KM201610, with a purity of 99.99% as determined by high performance liquid chromatography), stored at 4° C. in the dark, and dissolved in normal saline to a desired concentration before use. DSS was purchased from MP Biomedicals, USA and fully dissolved in distilled water to a desired concentration before use. Mesalazine enteric coated tablets were purchased from Heilongjiang Tianhong Pharmaceutical Co., Ltd. A citrate (pH=6.0) antigen retrieval solution, BSA, an anti-myeloperoxidase primary antibody, an HRP-conjugated goat anti-rabbit secondary antibody and a histochemistry kit for DAB staining were purchased from Wuhan Servicebio Technology Co., Ltd. (the same applies below).
(§3) Fifty-one healthy SPF C57BL/6 mice were randomly assigned into a blank control group (n=6), a model group (n=9) and 4 treatment groups (n=9 for each) respectively administered with low (0.67 mg/kg), medium (2 mg/kg) and high (6 mg/kg) doses of koumine, as well as mesalazine (100 mg/kg) as a positive control. A mouse model of DSS-induced bowel inflammation was established by allowing the mice in the model group and the individual treatment groups to have free access to a 2.5% DSS solution in water for 8 days and providing ad libitum access to normal water to the mice in the blank control group. From the day of induction (D0), the mice in the treatment groups received intragastric administration (0.1 mL/10 g) once a day for 9 consecutive days (D0-D8), while those in the control and model groups were given the same volumes of normal saline also by intragastric administration throughout the same period. Body weight measurements were taken and fecal occult blood tests were performed daily. One hour after the last administration (D8), the mice were sacrificed by cervical dislocation under anesthesia. Immediately after that, a bowel segment from the terminal ileum to the anus was removed from each mouse, and a length from the ileocolonic junction to the anus was measured and recorded. Colonic tissue was taken 1 cm away from the anus for histopathological examination, as well as for immunohistochemical detection for the expression of MPO. Additionally, colonic tissue was taken 1-2 cm away from the anus for MPO activity determination.

[3] = test system: myeloperoxidase (MPO); test: MPO activity assay in colonic tissue homogenates, OXA model; type: in vivo, BALB/c mice; conditions: p<0.01, p<0.001 vs model, FIG. 10
Protocol: as §1

[4] = test system: mice with OXA-induced colitis; test: OXA-induced colitis in BALB/c mice (body weight, colon length, histomorphology); type: in vivo
Source text: OXA-induced colitis causes lesions primarily in the distal colon and resembles human IBD in terms of histological characteristics and distribution of inflammation, which can be manifested as a decrease in goblet cells.
Six to eight week old healthy male SPF BALB/c mice were purchased from Shanghai SLAC Laboratory Animal Co., Ltd. (License No. SOCK (Shanghai) 2017-0005).
The same koumine hydrochloride and mesalazine as in Example 1 were used. OXA was purchased from Sigma, USA and prepared in the form of a solution before use by fully dissolving it in absolute ethanol preheated to 35° C. When used for an enema, the solution was diluted 1-fold with normal saline to a desired concentration. Absolute ethanol was purchased from Merck, Germany. All the other reagents were the same as in Example 1.
Seventy-four BALB/c mice were randomly assigned into a blank control group (n=6), a vehicle control group (n=10), a model group (n=19) and low-dose (n=10), medium-dose (n=9) and high-dose (n=12) koumine treatment groups and another treatment group (n=8) administered with mesalazine as a positive control. A mouse model of OXA-induced UC was established by sensitizing and then giving enemas to the mice in the model group and the individual treatment groups. Specifically, each of the mice was anesthetized and sensitized by drop-wise applying a 3% solution (150 μL) of OXA in absolute ethanol to a shaved abdominal area (about 1.5 cm×1.5 cm), and received an enema using a 1% solution of OXA in 50% ethanol (100 μL) five days following the sensitization (D0). The mice in the vehicle and blank control groups were treated similarly, except for drop-wise application of 150 μL absolute ethanol and normal saline in the sensitization phase, respectively, and use of 100 μL of 50% ethanol and the same volume of normal saline in the enema phase, respectively. From the day of enema administration (D0), the mice in the treatment groups received intragastric administration (0.1 mL/10 g) once a day for 4 consecutive days (D0-D3). The daily dosage of koumine and the positive control mesalazine to the treatment groups was the same as in Example 1, and the vehicle control group was given the same volumes of 50% ethanol. Bowel inflammation evaluation of the animals was conducted in the same manner using the same indicators as in Example 1.

[5] = test system: mice with DSS-induced bowel inflammation; test: DSS-induced bowel inflammation in C57BL/6 mice (body weight, defecation, colon length, histopathology); type: in vivo; conditions: for histopathological scoring: p<0.01 vs model, FIG. 4
Protocol: Dextran sulfate sodium (DSS) has an anticoagulant effect and, when orally administered to experimental animals, can cause hyperemia, ulcers, submucosal edema in bowel tissue and other pathological manifestations closely similar to those of clinical IBD patients. Models of DSS-induced bowel inflammation can be taken as basic models for studying the pathogenesis of UC and even IBD and evaluating the efficacy of therapeutic medicaments. In this example, therapeutic effects of koumine were evaluated in a C57BL/6 mouse model of DSS-induced bowel inflammation with the animals' body weight, defecation, pathological manifestations of colonic tissue, expression of MPO in colonic tissue and the like as indicators.
1.1. Experimental Animals Six to eight week old healthy male SPF C57BL/6 mice (weighing 18-22 g) were purchased from Shanghai SLAC Laboratory Animal Co., Ltd. (License No. SOCK (Shanghai) 2017-0005). Prior to study start, the mice were acclimated for 7 days until their body weights reached 20±2 g. They were bred under conditions of a 12/12-h light-dark cycle (light on 8:00-20:00), constant temperature (20-26° C.) and constant humidity (40-70%), with food and water provided ad libitum. Experimental operations were conducted in accordance with regulations of international and local committees on care and use of laboratory animals (the same applies below).
as §2, §3

[6] = mesalazine 100 mg/kg intragastric

C=CC12CN(C)C3CC14C(=Nc1ccccc14)C1CC2C3CO1 (centres unmarked) [koumine]
expression of MPO in colonic tissue ([1]; koumine at the different doses (0.67, 2, 6 mg/kg) intragastric, FIG. 9 C-E): suppressed expression of MPO to varying extents
expression of MPO in colonic tissue ([2]; high dose 6 mg/kg intragastric, FIG. 5 E): lowered the expression of MPO to different extents
expression of MPO in colonic tissue ([2]; low dose 0.67 mg/kg intragastric, FIG. 5 C): did not lead to any noticeable decrease in the expression of MPO
expression of MPO in colonic tissue ([2]; medium dose 2 mg/kg intragastric, FIG. 5 D): lowered the expression of MPO to different extents
enzymatic activity of MPO in colonic tissue ([3]; koumine at the different doses (0.67, 2, 6 mg/kg) intragastric): significantly reduced enzymatic activity per unit weight
gross manifestations of colonic tissue (hyperemia, redness and swelling) ([4]; high dose 6 mg/kg intragastric): remarkable relief of most manifestations of colonic tissue
microscopic manifestations of HE-stained colonic tissue ([4]; high dose 6 mg/kg intragastric, FIG. 8 E): infiltration of only a small number of inflammatory cells
body weight loss ([4]; koumine 0.67, 2, 6 mg/kg intragastric once a day D0-D3, FIG. 6): alleviate body weight loss of mice with colitis in a dose-dependent manner
positive effect on colon length ([4]; koumine 0.67, 2, 6 mg/kg intragastric, FIG. 7): dose-dependent
gross manifestations of colonic tissue (hyperemia, redness and swelling) ([4]; low dose 0.67 mg/kg intragastric): appeared to not mitigate the manifestations
microscopic manifestations of HE-stained colonic tissue ([4]; low dose 0.67 mg/kg intragastric, FIG. 8 C): slightly milder symptoms than the symptoms of the model group
colon shortening ([4]; low dose 0.67 mg/kg intragastric, p<0.01 vs model, FIG. 7): significantly reduce their colon shortening
gross manifestations of colonic tissue (hyperemia, redness and swelling) ([4]; medium dose 2 mg/kg intragastric): not seen with severe redness and swelling, hyperemia or other inflammatory manifestations
microscopic manifestations of HE-stained colonic tissue ([4]; medium dose 2 mg/kg intragastric, FIG. 8 D): infiltration of only a small number of inflammatory cells
defecation and hematochezia ([5]; high dose 6 mg/kg intragastric once a day): fewer times of defecation and mitigated hematochezia
gross damage and hyperemia of bowel mucosa ([5]; koumine 0.67, 2, 6 mg/kg intragastric once a day): ameliorate damage, hyperemia and the like
symptom of weight loss ([5]; koumine 0.67, 2, 6 mg/kg intragastric once a day D0-D8, FIG. 1): alleviate the symptom of weight loss
colon shortening ([5]; koumine 0.67, 2, 6 mg/kg intragastric once a day, FIG. 2): dose-dependently reduce colon shortening
microscopic manifestations of HE-stained colonic tissue ([5]; koumine 0.67, 2, 6 mg/kg intragastric, FIG. 3 C-E): reduced inflammatory cell infiltration
histopathological scoring ([5]; koumine high dose 6 mg/kg intragastric): significantly inhibit increases in the sore of the model group
average body weight vs model group ([5]; low dose 0.67 mg/kg intragastric once a day, as early as D6 (seventh day of administration), p<0.05, FIG. 1): significantly higher than that of those in the model group
colon length vs model group ([5]; low dose 0.67 mg/kg intragastric, eighth day of administration, p<0.05, FIG. 2): significantly greater than that of the model group
defecation and hematochezia ([5]; medium dose 2 mg/kg intragastric once a day): fewer times of defecation and mitigated hematochezia
average body weight vs model group ([5]; medium dose 2 mg/kg intragastric once a day, from D5 (sixth day of administration), p<0.05 and p<0.01, FIG. 1): significantly higher than that of those in the model group

Nc1ccc(O)c(C(=O)O)c1 [mesalazine, reference compound]
expression of MPO in colonic tissue ([1]; mesalazine 100 mg/kg intragastric, FIG. 9 F): suppressed expression of MPO to varying extents
expression of MPO in colonic tissue ([2]; mesalazine 100 mg/kg intragastric, FIG. 5 F): lowered the expression of MPO to different extents
enzymatic activity of MPO in colonic tissue [3, 6]: significantly reduced enzymatic activity per unit weight
effect of alleviating body weight loss ([4]; mesalazine 100 mg/kg intragastric once a day D0-D3, FIG. 6): comparable to that of the medium dose of koumine
positive effect on colon length ([4]; mesalazine 100 mg/kg intragastric, FIG. 7): comparable to that of koumine at 6 mg/kg
microscopic manifestations of HE-stained colonic tissue ([4]; mesalazine 100 mg/kg intragastric, FIG. 8 F): infiltration of only a small number of inflammatory cells
microscopic manifestations of HE-stained colonic tissue ([5]; mesalazine 100 mg/kg intragastric, FIG. 3 F): obvious improvements over the model group mice
histopathological scoring [5, 6]: significantly inhibit increases in the sore of the model group
